Values of other authors, collected in US9084755B2, “Method for extracting and separating ginkgolides” (CHENGDU BAIYU TECHNOLOGY PHARMACY CO., LTD, priority 2012, dated 2015).

Target: platelet-activating factor PAF receptor (Homo sapiens, UniProt P25105)
Details: compared among ginkgolides

Chain of platelet-activating factor PAF receptor (P25105 whole entry): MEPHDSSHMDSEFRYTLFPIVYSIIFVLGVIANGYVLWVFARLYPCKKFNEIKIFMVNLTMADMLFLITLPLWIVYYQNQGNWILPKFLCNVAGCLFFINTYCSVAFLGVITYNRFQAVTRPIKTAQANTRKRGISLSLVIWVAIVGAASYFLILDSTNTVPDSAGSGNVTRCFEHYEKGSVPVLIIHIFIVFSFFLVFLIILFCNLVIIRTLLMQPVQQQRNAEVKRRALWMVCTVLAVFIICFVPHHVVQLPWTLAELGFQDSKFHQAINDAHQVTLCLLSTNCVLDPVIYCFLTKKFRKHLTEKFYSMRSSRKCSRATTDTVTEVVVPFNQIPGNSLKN

Q: With `C[C@@H]1C(=O)O[C@H]2[C@H](O)C34[C@H]5C[C@@H](C(C)(C)C)[C@]36[C@@H](OC(=O)[C@@H]6O)O[C@@]4(C(=O)O5)[C@@]12O` (stereo partly shown) [ginkgolide B] as the molecule, how does the “antagonism to the PAF” value read?
A: strongest
